Measurements taken from paper PMC8705706, “Benzimidazole Derivatives as New and Selective Inhibitors of Arginase from Leishmania mexicana with Biological Activity against Promastigotes and Amastigotes” (International Journal of Molecular Sciences, 2021).
Counter-ions that a name gives are not always drawn.

Key:
[1] = target: recombinant arginase from Leishmania mexicana (LmARG) (Leishmania mexicana, UniProt Q6TUJ5); assay: Inhibition of recombinant LmARG, colorimetric urea assay; assay type: biochemical; conditions: for inhibition at 200 µM: read-out: % Inhibition LmARG [200 μM]; for Inhibition behavior of LmARG: I50 curves; for IC50: recombinant LmARG, read-out: I50 (concentration that inhibits 50% enzyme activity), LmARG
Protocol: (§1) The activity of the recombinant arginases was measured in a colorimetric assay with some modifications. Briefly, the enzyme (2 µg) was previously activated with 1 mM MnCl2, 100 mM Tris-HCl, pH 8 during 15 min at 37 °C. Thereafter, 50 mM L-arginine was added, and the reaction was stopped after 10 min using 30 µL of an acid mixture (H2SO4, H3PO4 and H2O [1:3:7]), and 20 µL of 245 mM of α-isonitrosopropiophenone (dissolved in ethanol). Samples were heated in a thermocycler at 95 °C for 1 h. The urea in the samples was measured at 550 nm in a Synergy H1 Hybrid Multi-Mode Microplate Reader (BioTek).
(§2) The fifty molecules with the highest docking score were selected for inhibition studies that were made under the conditions mentioned above, adding the respective compound (dissolved in DMSO) at a concentration of 200 µM, keeping a final 10% DMSO concentration. The concentration that inhibits 50% of the enzyme activity (I50) was determined through curves at different compound concentrations. The I50 was obtained fitting the curves to the equation reported by Téllez-Valencia, et al., 2002 [25].

[2] = test system: Promastigotes of L. mexicana (MNYC/BZ/62/M379); assay: Biological activity against promastigotes, resazurin; assay type: cell-based, Leishmania mexicana; conditions: 48 h
Protocol: Promastigotes of L. mexicana (MNYC/BZ/62/M379 reference strain) were grown in Schneider’s medium supplemented with fetal bovine serum 10% (v/v), ampicillin (100 U/mL)/streptomycin (100 µg/mL). Parasites were collected at log phase to assess the compounds and 5 × 10^5 promastigotes were seeded in a 96-wells plate. Compounds were previously dissolved in dimethyl sulfoxide (DMSO) up to a concentration of 1 mg/mL. Thereafter, serial dilutions were made with culture medium from 100 µg/mL to 0.8 µg/mL and then they were added to the wells by triplicates. Parasites non treated and treated with Glucantime, Amphotericin B and Miltefosine were included as […]. Parasites were incubated at 26 °C during 48 h and resazurin 2.5 mM was added at the end into each well. Afterwards, fluorescence intensity was measured with excitation/emission 535/590 nm in a spectrofluorometer (Infinite 200, Tecan Group Ltd., Mannedorf, Switzerland). Finally, half maximal inhibitory concentration (IC50) was determined through a Probit analysis. The assays were made by triplicate in 3 independent experiments.

[3] = test system: Murine macrophages J774.2; design: method as in Matadamas-Martínez et al., 2019 [28]; conditions: J774.2 murine macrophages; previous study under the same conditions; ref Matadamas-Martínez et al., 2019 [28]; cited from earlier work
[4] = test system: amastigote of L. mexicana; assay: Biological activity against intracellular amastigotes in J774.2 macrophages, resazurin; assay type: cell-based, Leishmania mexicana; conditions: intracellular L. mexicana amastigotes in J774.2 macrophages, 48 h
Protocol: Biological activity of the benzimidazole derivatives was also evaluated against the amastigote of L. mexicana. For this, 5 × 10^4 murine macrophages J774.2 (ATCC® TIB-67) per well were grown in a plate of 96 wells with RPMI medium at […], 5% CO2 during 24 h. The cells were infected with promastigotes in log phase in a 10:1 proportion (parasite: macrophage) and they were incubated at 37 °C, 5% CO2 during 24–48 h. A wash with RPMI medium to remove the not-infected promastigotes was made. Compounds were added in a serial dilution from 100 µg to 0.8 µg/mL in triplicate and were incubated at 37 °C, 5% CO2 for 48 h. Glucantime, Amphotericin B and Miltefosine were used as reference drugs. Then, the cells were lysed with a non-complemented Schneider’s medium lysis solution with SDS 0.01%, after incubating for 20 min the lysis solution was removed. Afterwards, Schneider medium was added incubating at 26 °C during four days at room temperature to differentiate intracellular amastigotes from free amastigotes. Thereafter, 20 µL of resazurin 2.5 mM was added to each well and incubated during 3 h. Fluorescence intensity and IC50 were measured as described for promastigotes. The assays were made by triplicate in 3 independent experiments.

promastigotes = conditions: cited from earlier work
[5] = test system: L. amazonensis promastigotes; design: method as in PMID 33198198; conditions: cited from earlier work
human arginase 1 (HsARG) = target: T1, human arginase 1 (HsARG) (Homo sapiens, UniProt P05089); assay: Inhibition of recombinant human arginase 1, colorimetric urea assay; assay type: biochemical; conditions: for Selectivity LmARG versus HsARG: comparison of inhibition of LmARG and HsARG; for Inhibition of recombinant HsARG: highest concentration possible to be tested, 1 mM
T1 construct: made in house; host or cells: E. coli BL21(DE3)pLysS
T1 sequence (P05089 1-322): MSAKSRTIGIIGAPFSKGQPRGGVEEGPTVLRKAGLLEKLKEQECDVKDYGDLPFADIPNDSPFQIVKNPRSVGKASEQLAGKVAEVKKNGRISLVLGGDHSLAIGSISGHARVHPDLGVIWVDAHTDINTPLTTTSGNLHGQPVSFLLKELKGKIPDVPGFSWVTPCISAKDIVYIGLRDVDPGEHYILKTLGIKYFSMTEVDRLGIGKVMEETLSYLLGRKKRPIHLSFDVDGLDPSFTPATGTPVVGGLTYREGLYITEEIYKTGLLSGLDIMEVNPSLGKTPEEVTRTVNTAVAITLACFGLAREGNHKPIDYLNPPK
Protocol: as §1, §2

[6] = Cytotoxicity assay, resazurin; assay type: cell-based; conditions: mouse, J774.2 murine macrophages, maximum concentration evaluated
Protocol: Murine macrophages J774.2 (ATCC® TIB-67) (5 × 10^4 cells/well) were grown in plates of 96 wells for 24 h at 37 °C in 5% CO2. Thereafter, compounds were added in serial diluted concentrations (100 to 0.8 µg/mL) and they were incubated during 24 h. The cellular vitality was evaluated using resazurin, adding 20 µL to each well at 2.5 mM incubating 4 h. Finally, the cytotoxic concentration (CC50) was determined through a Probit analysis. The assays were made by triplicate in 3 independent experiments. CC50 values of Amphotericin B, Miltefosine and Glucantime were taken from a previous study performed under the same conditions by our research group.

Compound: COC(=O)Nc1nc2ccc(Cl)cc2n1C [Compound 8, Methyl (6-chloro-1-methyl-1H-benzimidazol-2-yl)carbamate]
- inhibition at 200 µM [1]: 40%

Compound: CSc1nc2cc(N3CCNCC3)c(Cl)cc2[nH]1 [Compound 6, 6-Chloro-2-(methylthio)-5-(piperazin-1-yl)-1H-benzimidazole]
- inhibition at 200 µM [1]: 46%

Compound: COC(=O)c1cc2c(cc1Cl)nc(SCC=NNC(N)=O)n2C [Compound 3, Methyl 2-((2-(2-carbamoylhydrazineylidene)ethyl)thio)-5-chloro-1-methyl-1H-benzimidazole-6-carboxylate]
- melting point: 196.7 to 197.1 °C
- inhibition at 200 µM [1]: 60%

Compound: CNc1ccc(Cl)cc1N [Compound 11]
- inhibition at 200 µM [1]: 33%

Compound: C[C@@H]1[C@H](O)[C@@H](C)/C=C/C=C/C=C/C=C/C=C/C=C/C=C/[C@H](O[C@@H]2O[C@H](C)[C@@H](O)[C@H](N)[C@@H]2O)C[C@@H]2O[C@](O)(C[C@@H](O)C[C@@H](O)[C@H](O)CC[C@@H](O)C[C@@H](O)CC(=O)O[C@H]1C)C[C@H](O)[C@H]2C(=O)O [Amphotericin B]
- IC50 ([2]; Leishmania mexicana): 0.89 µM
- CC50 [3]: 7.4 µM
- IC50 ([4]; Leishmania mexicana): 1.3 µM

Compound: COC(=O)Nc1nc2ccc(Cl)cc2n1C (hydrate or solvate) [Compound 8, Methyl (6-chloro-1-methyl-1H-benzimidazol-2-yl)carbamate]
- melting point: 191.3 to 192.4 °C

Compound: N=C(NO)NCC[C@H](N)C(=O)O [nor-NOHA]
- EC50 in promastigotes (promastigotes): millimolar order

Compound: CSc1nc2cc(N3CCNCC3)c(Cl)cc2[nH]1 (as salt: HCl) [Compound 6, 6-Chloro-2-(methylthio)-5-(piperazin-1-yl)-1H-benzimidazole]
- melting point: 235 to 237 °C

Compound: meglumine antimoniate [Glucantime]
- IC50 [2]: 101 µM
- CC50 [3]: > 273 µM
- IC50 [4]: 35 µM

Compound: COC(=O)c1cc2c(cc1Cl)nc(SCCNC(=N)N)n2C [Compound 7, Methyl 5-chloro-2-((2-guanidinoethyl)thio)-1-methyl-1H-benzimidazole-6-carboxylate]
- melting point: 172.9 to 173.4 °C
- inhibition at 200 µM [1]: 40%

Compound: NC(=NCCC[C@H](N)C(=O)O)NO [NOHA]
- EC50 in promastigotes (promastigotes): millimolar order

Compound: CC(=O)c1nc2ccc(Cl)cc2n1C [Compound 10]
- inhibition at 200 µM [1]: 33%

Compound: CCCSc1ccc2c(c1)nc(NC(=O)OC)n2C [Compound 9, Methyl (1-methyl-5-(propylthio)-1H-benzimidazol-2-yl)carbamate]
- melting point: 120.5 to 122.1 °C
- inhibition at 200 µM [1]: 36%

Compound: CC(=O)c1nc2cc(Cl)ccc2n1C [Compound 4]
- inhibition at 200 µM [1]: 56%

Compound: COC(=O)c1cc2nc(S)[nH]c2cc1Cl [Compound 15]
- inhibition at 200 µM [1]: 25%

Compound: CCCCCCCCCCCCCCCCOP(=O)([O-])OCC[N+](C)(C)C [Miltefosine]
- IC50 ([2]; Leishmania mexicana): 8.1 µM
- CC50 [3]: 141 µM
- IC50 ([4]; Leishmania mexicana): 8.6 µM

Compound: O=C(/C=C/c1ccc(O)c(O)c1)Nc1ccccc1 [CAPA, caffeic acid phenylamide]
- IC50 [5]: 82.6 µM

Compound: COC(=O)c1cc2c(cc1Cl)nc(S)n2C [Compound 16]
- inhibition at 200 µM [1]: 25%

Compound: CNc1cc(Cl)ccc1N [Compound 12]
- inhibition at 200 µM [1]: 30%

Compound: CSc1nc2cc(C(N)=O)c(Cl)cc2[nH]1 [Compound 2, 6-Chloro-2-(methylthio)-1H-benzimidazole-5-carboxamide]
- Inhibition behavior of LmARG [1]: cooperative behavior
- inhibition at 200 µM [1]: 100%
- IC50 [1]: 82 µM
- Selectivity LmARG versus HsARG (human arginase 1 (HsARG)): selective to the enzyme from parasite
- Inhibition of recombinant HsARG (human arginase 1 (HsARG)): none of the compounds inhibit completely the enzyme
- IC50 ([2]; Leishmania mexicana): 132 µM
- IC50 ([4]; Leishmania mexicana): 101 µM
- CC50 at 24 h ([6]; J774.2 macrophages): > 414 µM

Compound: CNC(=O)c1nc2ccc(Cl)cc2n1C [Compound 5]
- inhibition at 200 µM [1]: 56%

Compound: CCCSc1ccc(NC)c(N)c1 [Compound 13]
- inhibition at 200 µM [1]: 27%

Compound: COC(=O)Nc1nc2cc(Cl)ccc2n1C [Compound 1, Methyl (5-chloro-1-methyl-1H-benzimidazol-2-yl)carbamate]
- Inhibition behavior of LmARG [1]: cooperative behavior
- inhibition at 200 µM [1]: 100%
- IC50 [1]: 52 µM
- Selectivity LmARG versus HsARG (human arginase 1 (HsARG)): selective to the enzyme from parasite
- Inhibition of recombinant HsARG (human arginase 1 (HsARG)): none of the compounds inhibit completely the enzyme
- IC50 ([2]; Leishmania mexicana): 64 µM
- IC50 ([4]; Leishmania mexicana): 32 µM
- CC50 at 24 h [6]: > 417 µM
